Two compounds from patent US20130324489A1, “NEW ANTIFUNGAL COMPOSITIONS” (DSM IP ASSETS B.V., priority 2011, published 2013) can be followed below.

One assay concerns Botrytis cinerea. Kind of assay: In vitro antifungal activity, 96-well microtiter plates. Format: cell-based. The settings on record: 1.25 ppm natamycin, 25° C. The procedure: The following compositions were tested: […] After incubation of the microtiter plates at 25° C., the in vitro antifungal activity (%) of the individual active ingredients was assessed by calculating the reduction in mould growth observed in the presence of the active ingredient in comparison to the mould growth observed in the absence of the active ingredient. The expected antifungal activity (E in %) of the active ingredient combination was calculated according to the Colby equation (Colby, 1967): […] wherein X and Y are the observed antifungal activities (in %) of the individual active ingredients X and Y, respectively.

For a further assay, the system named is Penicillium italicum. Described as above. The conditions noted are these: 0.63 ppm natamycin, 5.0 ppm vinclozolin, 10 ppm procymidone, alone or natamycin + one of them, 25° C., day 3. The assay is classed as cell-based. As for the experimental part: Subsequently, 100 μl of a Botrytis cinerea suspension prepared in PCB medium was used to inoculated each well with 2.5×10^3 spores/ml.
After incubation of the microtiter plates at 25° C., the in vitro antifungal activity (%) of the individual active ingredients was assessed by calculating the reduction in mould growth observed in the presence of the active ingredient in comparison to the mould growth observed in the absence of the active ingredient. The expected antifungal activity (E in %) of the active ingredient combination was calculated according to the Colby equation (Colby, 1967): […]
wherein X and Y are the observed antifungal activities (in %) of the individual active ingredients X and Y, respectively. If the observed antifungal activity (O in %) of the combination exceeds the expected antifungal activity (E in %) of the combination and the resulting synergy factor O/E is thus >1.0, the combined application of the active ingredients leads to a synergistic antifungal effect.
The experiment was conducted as described in Example 10, except for the fact that the following compositions were tested:
Furthermore, Penicillium italicum was used for inoculation. The antifungal activity (in %) of the individual and combined active ingredients was determined according to the method described in Example 10.

For the compound `CC(C)NC(=O)N1CC(=O)N(c2cc(Cl)cc(Cl)c2)C1=O` [Iprodione, iprodione], the “Observed antifungal activity O (%)” value with Botrytis cinerea (3.0 ppm iprodione or both, day 5) stood at 50%; in the assay on Botrytis cinerea (8.0 ppm iprodione or both, day 12), 50%.

Regarding `C=CC1(C)OC(=O)N(c2cc(Cl)cc(Cl)c2)C1=O` (stereo not drawn) [Vinclozolin, vinclozolin], the “Observed antifungal activity O (%)” value was found to be 0% with Penicillium italicum; 0% with Botrytis cinerea (1.5 ppm vinclozolin, 1.25 ppm procymidone, alone or natamycin + one of them, day 3); 0% with Botrytis cinerea (1.5 ppm vinclozolin, 1.25 ppm procymidone, alone or natamycin + one of them, day 6); 0% with Botrytis cinerea (7.0 ppm vinclozolin, 2.0 ppm procymidone, alone or natamycin + one of them, day 10).
